# Read-outs that look alike come from different tables or passages of the source.
# What was measured:
# [1] = test system: human lung (A549) cancer cell line; assay: Cell viability, crystal violet dye binding assay, A549; type: cell-based
# A549 cells [2] = assay: ROS production, DCFDA dye; type: cell-based, human; settings: 30 min
# A549 cells [3] = assay: Mitochondrial membrane potential; type: cell-based, human; settings: rhodamine-123
# [4] = Homo sapiens, A549, 48 h, read-out: CC50 (cytotoxic concentration), A549, A549, 48 h exposure, crystal violet, mean ± SD
# [5] = read-out: CC50 (cytotoxic concentration), A549, A549, 48 h exposure, crystal violet, mean ± SD
compound,measurement,setting,value
"CC(=O)Oc1ccc(-c2c(C)c3ccccc3oc2=O)cc1 [Compound 10, 4-(4-methyl-2-oxo-2H-chromen-3-yl)phenyl acetate]",CC50,[1]; [4],> 100 µM
"Cc1c(-c2ccc(S(C)(=O)=O)cc2)c(=O)oc2ccccc12 [Compound 11, 3-(4-methanesulfonylphenyl)-4-methyl-2H-chromen-2-one]",CC50,[1]; [4],> 100 µM
"CC(=O)O[C@@]12CO[C@@H]1C[C@H](O)[C@@]1(C)C(=O)[C@H](O)C3=C(C)[C@@H](OC(=O)[C@H](O)[C@@H](NC(=O)OC(C)(C)C)c4ccccc4)C[C@@](O)([C@@H](OC(=O)c4ccccc4)[C@H]21)C3(C)C [Docetaxel, reference compound]",CC50,[1]; [4],9.47 µM
same,CC50,[1]; [5],9.4 ± 0.07 µM
"CS(=O)(=O)c1ccc(-c2cc3ccccc3oc2=O)cc1 [Compound 9, 3-(4-methanesulfonylphenyl)-2H-chromen-2-one]",CC50,[1]; [4],> 100 µM
"CC(=O)Oc1ccc2cc(-c3ccc(S(C)(=O)=O)cc3)c(=O)oc2c1OC(C)=O [Compound 7, 8-(acetyloxy)-3-(4-methanesulfonylphenyl)-2-oxo-2H-chromen-7-yl acetate]","fold decrease in potency compared to docetaxel (CC50, A549)","[1]; A549, 48 h, 7 vs docetaxel",2.5 fold
same,CC50,[1]; [5],24.2 ± 0.7 µM
same,ROS fluorescence intensity in comparison to untreated control (100%),"A549 cells [2]; A549, 10 μM",107.1%
same,ROS fluorescence intensity in comparison to untreated control (100%),"A549 cells [2]; A549, 25 μM",129.0%
same,ROS fluorescence intensity in comparison to untreated control (100%),"A549 cells [2]; A549, 50 μM",136.6%
same,ROS fluorescence intensity in comparison to untreated control (100%),"A549 cells [2]; A549, 75 μM",146.0%
same,ROS fluorescence intensity in comparison to untreated control (100%),"A549 cells [2]; A549, 100 μM",231.2%
same,MMP fluorescence intensity in comparison to untreated control (100%),"A549 cells [3]; A549, 10 μM",96.4%
same,MMP fluorescence intensity in comparison to untreated control (100%),"A549 cells [3]; A549, 25 μM",94.8%
same,MMP fluorescence intensity in comparison to untreated control (100%),"A549 cells [3]; A549, 50 μM",93.4%
same,MMP fluorescence intensity in comparison to untreated control (100%),"A549 cells [3]; A549, 75 μM",92.9%
same,MMP fluorescence intensity in comparison to untreated control (100%),"A549 cells [3]; A549, 100 μM",81.7%
"CC(=O)Oc1ccc(-c2cc3ccc(OC(C)=O)c(OC(C)=O)c3oc2=O)cc1 [Compound 6, 8-(acetyloxy)-3-[4-(acetyloxy)phenyl]-2-oxo-2H-chromen-7-yl acetate]",CC50,[1]; [4],75.2 µM
same,CC50,[1]; [5],75.9 ± 0.65 µM

# — article PMC4765731 (Anticancer research, 2015)
